Read-outs that look alike come from different tables or passages of the source.
How the values were obtained:
Alternaria alternate = test: in vitro-Test with fungal microorganisms, Method A (tables A1-A12); assay type: cell-based, Alternaria alternata; settings: Alternaria, applied alone, read-out: Efficacy %
Method in brief: (§1)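 Readout: extinction at 620 nm, measured at start and again 3-5 days later, giving efficacy versus untreated control (0% = control growth, 100% = no growth). Compounds were evaporated from methanol/emulsifier before adding potato dextrose medium with fungal spores or mycelium; incubation 20° C, 85% RH.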

Alternaria alternata = test: in vitro-Test with fungal microorganisms, Method B (tables A13-A22); assay type: cell-based
Method in brief: (§2)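 Efficacy scale: 0% means growth equal to the untreated control, 100% means none detected. Compounds are dried from methanol with emulsifier before adding inoculated growth medium; incubation at 20° C., 85% relative humidity for 3 to 7 days precedes photometric inhibition readout.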

Botrytis cinerea = test: in vitro-Test with fungal microorganisms, Method A (tables B1-B14); assay type: cell-based; settings: Botrytis cinerea, alone, read-out: Efficacy %
Method in brief: as §1

Cercospora beticola [1] = test: in vitro-Test with fungal microorganisms, Method A (tables C1-C10); assay type: cell-based; settings: Cercospora beticola, read-out: Efficacy %
Method in brief: as §1

Cercospora beticola [2] = test: in vitro-Test with fungal microorganisms, Method B (tables C11-C20); assay type: cell-based; settings: Cercospora beticola, read-out: Efficacy %
Method in brief: as §2

[3] = system: Colletotrichum lindemuthianum; test: in vitro-Test with fungal microorganisms, Method A (tables D1-D8); assay type: cell-based; settings: Colletotrichum lindemuthianum, mixing partner alone, read-out: Efficacy %
Method in brief: as §1

Cordana musae = test: in vitro-Test with fungal microorganisms, Method B (tables E9-E16); assay type: cell-based; settings: Neocordana musae, single active, read-out: Efficacy
Method in brief: as §2

Diaporthe citri [4] = test: in vitro-Test with fungal microorganisms, Method A (tables F1-F11); assay type: cell-based; settings: Diaporthe citri, read-out: Efficacy
Method in brief: as §1

Diaporthe citri [5] = test: in vitro-Test with fungal microorganisms, Method B (tables F12-F15); assay type: cell-based
Description: (§3) Example: In Vitro-Test with Fungal Microorganisms
(§4) Wells of 96-well microtiter plates are filled with 30 μl of a preparation of test compound or compound combination in methanol+emulsifier alkylaryl-polyglycol-ether. Thereafter, the solvent is evaporated in a hood. At the next step, 200 μl of liquid growth medium is given, that has been amended with an appropriate concentration of spores or mycelium suspension of the test fungus.
(§5) With the aid of a photometer, the extinction in all wells is measured at the wavelength of 600 nm.
(§6) The microtiter plates are incubated for 3 to 7 days at 20° C. and 85% relative humidity. After the incubation inhibition of growth is determined photometrically. Efficacy is calculated in relation to the untreated control, 0% efficacy means fungal growth as high as in untreated control while 100% efficacy means no fungal growth is measured.
(§7) The data in tables A1 to A12, B1 to B14, C1 to C10, D1 to D8, E1 to E8, F1 to F11, G1 to G4, H1 to H4 and I1 to I5 were collected according to Method A. The data in tables A13 to A22, B15 to B18, C11 to C20, E9 to E16, F12 to F15, G5 to G15, H5 to H8, I6 to I11 and J1 to J11 were collected according to Method B.

Fusarium culmorum = test: in vitro-Test with fungal microorganisms, Method B (tables G5-G15); assay type: cell-based
Method in brief: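 Cpd in MeOH + alkylaryl-polyglycol-ether, solvent evaporated; liquid medium + fungal spores/mycelium added; OD600 read; 3–7 d, 20° C., 85% RH; growth inhibition by photometry, % efficacy vs untreated ctrl.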

Parastagonospora nodorum = test: in vitro-Test with fungal microorganisms, Method B (tables H5-H8); assay type: cell-based; settings: Parastagonospora nodorum, read-out: Efficacy
Description: as §3, §4, §5, §6, §7

[6] = system: Ustilago segetum var. avenae; test: in vitro-Test with fungal microorganisms, Method B (tables I6-I11); assay type: cell-based; settings: read-out: Efficacy %
Method in brief: as §2

Colletotrichum coccodes = test: in vitro-Test with fungal microorganisms, Method B (tables J1-J11); assay type: cell-based; settings: Colletotrichum coccodes, single active compound at 5 ppm; read-out: Efficacy %
Method in brief: as §2

**Q.** With `COc1cc(C)c(C(=O)c2c(OC)ccc(Br)c2C)c(OC)c1OC` [(15.016) metrafenone, metrafenone] as the compound, how does the inhibition of growth at 0.8 ppm (Alternaria alternate; 0.8 ppm) read?
**A.** 0%

**Q.** And the inhibition of growth at 4 ppm (Alternaria alternate; 4 ppm)?
**A.** 0%

**Q.** And the inhibition of growth at 20 ppm (Alternaria alternate; 20 ppm)?
**A.** 11%

**Q.** What about the Efficacy (Alternaria alternata; 0.2 ppm) of the same compound?
**A.** 3%

**Q.** What about the inhibition of growth at 0.2 ppm (Alternaria alternata; Alternaria alternata, 0.2 ppm, read-out: Efficacy) of the same compound?
**A.** 3%

**Q.** What about the inhibition of growth at 1 ppm (Alternaria alternata; Alternaria alternata, read-out: Efficacy) of the same compound?
**A.** 6%

**Q.** What about the inhibition of growth at 5 ppm (Alternaria alternata; Alternaria alternata, 5 ppm, read-out: Efficacy) of the same compound?
**A.** 16%

**Q.** And the inhibition of growth at 1 ppm (Alternaria alternata; Alternaria alternata, single compound, read-out: Efficacy)?
**A.** 0%

**Q.** What about the inhibition of growth at 4 ppm (Botrytis cinerea; 4.0 ppm) of the same compound?
**A.** 0%

**Q.** And the inhibition of growth at 20 ppm (Botrytis cinerea; 20.0 ppm)?
**A.** 0%

**Q.** What about the inhibition of growth at 0.8 ppm (Cercospora beticola [1]; 0.8 ppm) of the same compound?
**A.** 10%

**Q.** And the inhibition of growth at 4 ppm (Cercospora beticola [1]; 4.0 ppm)?
**A.** 0%

**Q.** What about the inhibition of growth at 20 ppm (Cercospora beticola [1]; 20.0 ppm) of the same compound?
**A.** 0%

**Q.** What about the inhibition of growth at 0.2 ppm (Cercospora beticola [2]) of the same compound?
**A.** 0%

**Q.** And the inhibition of growth at 1 ppm (Cercospora beticola [2]; 1 ppm)?
**A.** 0%

**Q.** And the inhibition of growth at 5 ppm (Cercospora beticola [2])?
**A.** 10%

**Q.** And the inhibition of growth at 0.2 ppm (Cercospora beticola [2]; single compound)?
**A.** 0%

**Q.** What about the inhibition of growth at 5 ppm (Cercospora beticola [2]; single compound) of the same compound?
**A.** 1%

**Q.** What about the inhibition of growth at 0.8 ppm ([3]; 0.8 ppm) of the same compound?
**A.** 10%

**Q.** And the inhibition of growth at 4 ppm ([3]; 4.0 ppm)?
**A.** 12%

**Q.** And the inhibition of growth at 20 ppm ([3]; 20.0 ppm)?
**A.** 21%

**Q.** What about the inhibition of growth at 0.04 ppm (Cordana musae; 0.04 ppm) of the same compound?
**A.** 0%

**Q.** What about the inhibition of growth at 0.2 ppm (Cordana musae; 0.2 ppm) of the same compound?
**A.** 0%

**Q.** What about the inhibition of growth at 1 ppm (Cordana musae; 1 ppm) of the same compound?
**A.** 0%

**Q.** What about the inhibition of growth at 5 ppm (Cordana musae; 5 ppm) of the same compound?
**A.** 11%

**Q.** What about the inhibition of growth at 0.8 ppm (Diaporthe citri [4]; Table F11, 0.8 ppm alone) of the same compound?
**A.** 0%

**Q.** And the inhibition of growth at 4 ppm (Diaporthe citri [4]; Table F11, 4.0 ppm alone)?
**A.** 0%

**Q.** And the inhibition of growth at 20 ppm (Diaporthe citri [4]; Table F11, 20.0 ppm alone)?
**A.** 0%

**Q.** What about the inhibition of growth at 0.8 ppm (Diaporthe citri [4]; applied alone, 0.8 ppm) of the same compound?
**A.** 0%

**Q.** And the inhibition of growth at 4 ppm (Diaporthe citri [4]; applied alone, 4.0 ppm)?
**A.** 10%

**Q.** And the inhibition of growth at 20 ppm (Diaporthe citri [4]; applied alone, 20.0 ppm)?
**A.** 0%

**Q.** What about the Efficacy (Diaporthe citri [5]; Table F12, 1 ppm alone) of the same compound?
**A.** 3%

**Q.** What about the Efficacy (Diaporthe citri [5]; Table F12, 5 ppm alone) of the same compound?
**A.** 0%

**Q.** What about the Efficacy (Diaporthe citri [5]; Table F14, 0.04 ppm alone) of the same compound?
**A.** 0%

**Q.** And the Efficacy (Diaporthe citri [5]; Table F14, 0.2 ppm alone)?
**A.** 0%

**Q.** What about the Efficacy (Diaporthe citri [5]; Table F14, 1 ppm alone) of the same compound?
**A.** 0%

**Q.** And the Efficacy (Diaporthe citri [5]; Table F14, 5 ppm alone)?
**A.** 0%

**Q.** What about the inhibition of growth at 1 ppm (Fusarium culmorum; Fusarium culmorum, alone, read-out: Efficacy) of the same compound?
**A.** 4%

**Q.** And the inhibition of growth at 0.04 ppm (Fusarium culmorum; Fusarium culmorum, single active compound, 0.04 ppm, read-out: Efficacy)?
**A.** 0%

**Q.** And the inhibition of growth at 0.2 ppm (Fusarium culmorum; Fusarium culmorum, single active compound, 0.2 ppm, read-out: Efficacy)?
**A.** 0%

**Q.** And the inhibition of growth at 1 ppm (Fusarium culmorum; Fusarium culmorum, single active compound, read-out: Efficacy)?
**A.** 7%

**Q.** What about the inhibition of growth at 5 ppm (Fusarium culmorum; Fusarium culmorum, single active compound, 5 ppm, read-out: Efficacy) of the same compound?
**A.** 13%

**Q.** What about the Efficacy (Fusarium culmorum; single active compound, 5 ppm) of the same compound?
**A.** 13%

**Q.** And the inhibition of growth at 0.04 ppm (Parastagonospora nodorum; 0.04 ppm)?
**A.** 0%

**Q.** And the inhibition of growth at 0.2 ppm (Parastagonospora nodorum; 0.2 ppm)?
**A.** 0%

**Q.** And the inhibition of growth at 1 ppm (Parastagonospora nodorum; 1 ppm)?
**A.** 0%

**Q.** And the inhibition of growth at 5 ppm (Parastagonospora nodorum; 5 ppm)?
**A.** 32%

**Q.** And the inhibition of growth at 0.04 ppm ([6]; 0.04 ppm)?
**A.** 4%

**Q.** What about the inhibition of growth at 0.2 ppm ([6]; 0.2 ppm) of the same compound?
**A.** 0%

**Q.** What about the inhibition of growth at 5 ppm (Colletotrichum coccodes) of the same compound?
**A.** 2%

Source: patent publication US12653191B2, “Active compound combinations” (Bayer Aktiengesellschaft, priority 2020, dated 2026)
